Test results from US10570180B2, “Anti-bacterial agents and their use in therapy” (priority 2015, dated 2020).
In brackets after ≈: the same amount, converted by molar mass. Read-outs that look alike come from different tables or passages of the source.

Key:
[1] = test system: E. faecium CTC 492; assay: MIC assay of antibiotics with ATX-101; format: cell-based, Enterococcus faecium; settings: for MIC: Enterococcus faecium, CTC492, E. faecium CTC 492, read-out: Est MIC
Protocol: (§1) The minimum inhibitory concentration (MIC) of ATX-101 (SEQ ID NO: 1289) was determined for various gram negative and gram positive bacteria. The bacteria, Pseudomonas aeruginosa ATCC 15692, Acinetobacter baumenni ATCC 19600, Escherichia coli ATCC 25922, Pseudomonas aeruginosa TO-5A (clinical isolate), Enterococous faecium CCUG 37832, Enterococcus faecium CTC 492, Micrococcus luteus ATCC 9341 and Escherichie coli NCIMB 12210 were grown in the presence of various concentrations of ATX-101 and/or antibiotic.
(§2) ATX-101 was dissolved in Mueller-Hinton broth to 1.25 times of the desired assay concentration. Antibiotics were dissolved in Mueller-Hinton broth and Mueller-Hinton broth with ATX-101 at a concentration of 1.25 times the highest desired assay concentrations. Antibiotics were pharmaceutical grade purchased from Sigma-Aldrich.
(§3) Two-fold serial dilutions of antibiotics were made in Mueller-Hinton with different concentrations of ATX-101, and the solutions were placed in four parallel wells is Nunc 384-well micro plates (30 μl per well in Nunc 242757 microplates). A group of 8 wells with no addition of antibiotics for each ATX-101 concentration was included on each micro plate as a growth reference.
(§4) At the day of analysis, overnight TSB cultures inoculated from freeze stocks (6 ml in 50 ml tube tilted to 45-degrees angle, 200 rpm, 2.5 cm amplitude, 37° C.) were diluted in TSB until the OD800 was 0.10, and further diluted 1:40 in Mueller-Hinton broth. Each well in the 384-well assay plates was inoculated with 7.5 μl of the diluted culture, giving the same dilution of the culture in the assay cultures. The microplates were placed in plastic bags and incubated without shaking at 37° C. The optical density at 600 nm in the microwells was measured after approximately 19 hours of incubation, and the relative growth yield was calculated based on the growth in the reference groups. The MIC value was set to the highest concentration giving less than 30% growth in all 4 parallel wells within the sample groups. The microplates were further incubated for 6 hours, and optical density in the cultures was measured once more for confirmation of the estimated MIC-values.
as §2, with “The APIM peptide was” for “ATX-101 was”, “with APIM” for “with ATX-101”
as §3, with “APIM,” for “ATX-101,”, “in” for “is”, “APIM” for “ATX-101”, “as” for “as a”
as §4, with “inoculated” for “inoculated from”, “OD600” for “OD800”, “culture.” for “culture, giving the same dilution of the culture in the assay cultures.”, “yield in each well” for “yield”

[2] = test system: Staphylococcus aureus MRSA 1040s; assay: microbe, parasite or virus in culture; format: cell-based; settings: for MIC: Staphylococcus aureus, Table 6, alone, MRSA 1040s, read-out: MIC; for MIC when combined with 10 μg/ml of ATX-101: Table 6, MRSA 1040s
Protocol: as §2, §3, §4
as §2, with “The APIM peptide was” for “ATX-101 was”, “with APIM” for “with ATX-101”
as §3, with “APIM,” for “ATX-101,”, “in” for “is”, “APIM” for “ATX-101”, “as” for “as a”
as §4, with “inoculated” for “inoculated from”, “OD600” for “OD800”, “culture.” for “culture, giving the same dilution of the culture in the assay cultures.”, “yield in each well” for “yield”
In view of the anti-bacterial effect of ATX-101 on strains of MRSA, the MIC for a variety of APIM variants was determined using Staphylococcus aureus MRSA 1040s. […] A cell penetrating peptide (SEQ ID NO: 337) present in all of the APIM peptides, was used as a negative control.
Next, the effect of APIM peptides on the MIC of antibiotics was determined using Staphylococcus aureus MRSA 1040s.
The MICS for various APIM peptides were determined for various bacteria, as described above.

[3] = test system: E. coli NCIMB 12210; assay: MIC assay of antibiotics with ATX-101; format: cell-based, Escherichia coli; settings: Escherichia coli, NCIMB12210, E. coli NCIMB 12210, read-out: Est MIC
Protocol: as §1, §2, §3, §4
as §2, with “The APIM peptide was” for “ATX-101 was”, “with APIM” for “with ATX-101”
as §3, with “APIM,” for “ATX-101,”, “in” for “is”, “APIM” for “ATX-101”, “as” for “as a”
as §4, with “inoculated” for “inoculated from”, “OD600” for “OD800”, “culture.” for “culture, giving the same dilution of the culture in the assay cultures.”, “yield in each well” for “yield”

[4] = test system: A. baumanii ATCC 19606; assay: MIC assay of antibiotics with ATX-101; format: cell-based; settings: Acinetobacter baumannii, ATCC19606, A. baumanii ATCC 19606, read-out: Est MIC
Protocol: as §2, with “The APIM peptide was” for “ATX-101 was”, “with APIM” for “with ATX-101”
as §3, with “APIM,” for “ATX-101,”, “in” for “is”, “APIM” for “ATX-101”, “as” for “as a”
as §4, with “inoculated” for “inoculated from”, “OD600” for “OD800”, “culture.” for “culture, giving the same dilution of the culture in the assay cultures.”, “yield in each well” for “yield”

Structure (SMILES)	MIC ([1]; APIM (ATX-101) conc. 6.5 μg/ml) [mg/L]	MIC ([1]; APIM (ATX-101) conc. 13 μg/ml) [mg/L]	MIC ([1]; APIM conc. 0 μg/ml) [mg/L]	MIC [2] [mg/L]	MIC when combined with 10 μg/ml of ATX-101 [2] [mg/L]	MIC ([3]; APIM (ATX-101) conc. 2 μg/ml) [mg/L]	MIC ([3]; APIM (ATX-101) conc. 4 μg/ml) [mg/L]	MIC ([3]; APIM (ATX-101) conc. 8 μg/ml) [mg/L]	MIC ([3]; APIM conc. 0 μg/ml) [mg/L]	MIC ([4]; APIM (ATX-101) conc. 2 μg/ml) [mg/L]	MIC ([4]; APIM (ATX-101) conc. 4 μg/ml) [mg/L]	MIC ([4]; APIM conc. 0 μg/ml) [mg/L]	ampicillin concentration sufficient to inhibit bacterial growth ([1]; combined with 6.5 μg/ml or 13 μg/ml ATX-101, FIG. 3)	ampicillin concentration required for the same level of inhibition ([1]; without ATX-101, FIG. 3) [µg/mL]	MIC ([4]; APIM (ATX-101) conc. 8 μg/ml) [mg/L]
CC1(C)S[C@@H]2[C@H](NC(=O)[C@H](N)c3ccccc3)C(=O)N2[C@H]1C(=O)O [Ampicillin]	0.5 (≈ 1.43 µM)	0.5 (≈ 1.43 µM)	1 (≈ 2.86 µM)										about 0.5 μg/ml	1	
CN[C@@H]1[C@@H](O[C@H]2O[C@H](CO)[C@@H](N)[C@H](O)[C@H]2O)OC2C[C@@H](N)[C@@H](O[C@H]3[C@H](O)[C@@H](O)[C@H](N)C[C@@H]3N)OC2[C@@H]1O (stereo partly shown) [Apramycin]	64 (≈ 119 µM)	32 (≈ 59.3 µM)	64 (≈ 119 µM)												
CC[C@H]1OC(=O)[C@H](C)[C@@H](O[C@H]2C[C@@](C)(OC)[C@@H](O)[C@H](C)O2)[C@H](C)[C@@H](O[C@@H]2O[C@H](C)C[C@H](N(C)C)[C@H]2O)[C@](C)(O)C[C@@H](C)CN(C)[C@H](C)[C@@H](O)[C@]1(C)O [Azithromycin, reference compound]				> 1030	8										
O=C(N[C@H](CO)[C@H](O)c1ccc([N+](=O)[O-])cc1)C(Cl)Cl [Chloramphenicol]	2 (≈ 6.19 µM)	1 (≈ 3.09 µM)	2 (≈ 6.19 µM)			2 (≈ 6.19 µM)	2 (≈ 6.19 µM)	1 (≈ 3.09 µM)	2 (≈ 6.19 µM)						
CC[C@@]1([C@@H]2O[C@@H]([C@H]3O[C@@](O)(CO)[C@H](C)C[C@@H]3C)C[C@@H]2C)CC[C@H]([C@]2(C)CC[C@]3(C[C@H](O)[C@@H](C)[C@@H]([C@@H](C)[C@@H](OC)[C@H](C)C(=O)O)O3)O2)O1 [Monensin]	0.5 (≈ 0.745 µM)	0.5 (≈ 0.745 µM)	1 (≈ 1.49 µM)							64 (≈ 95.4 µM)	64 (≈ 95.4 µM)	64 (≈ 95.4 µM)			32 (≈ 47.7 µM)

More lines, main results first:

MIC ([1]; APIM (ATX-101) conc. 6.5 μg/ml) [mg/L]	MIC ([1]; APIM (ATX-101) conc. 13 μg/ml) [mg/L]	MIC ([1]; APIM conc. 0 μg/ml) [mg/L]	MIC [2] [mg/L]	MIC when combined with 10 μg/ml of ATX-101 [2] [mg/L]	MIC ([3]; APIM (ATX-101) conc. 2 μg/ml) [mg/L]	MIC ([3]; APIM (ATX-101) conc. 4 μg/ml) [mg/L]	MIC ([3]; APIM (ATX-101) conc. 8 μg/ml) [mg/L]	MIC ([3]; APIM conc. 0 μg/ml) [mg/L]	MIC ([4]; APIM (ATX-101) conc. 2 μg/ml) [mg/L]	MIC ([4]; APIM (ATX-101) conc. 4 μg/ml) [mg/L]	MIC ([4]; APIM conc. 0 μg/ml) [mg/L]	Structure (SMILES)	ampicillin concentration sufficient to inhibit bacterial growth ([1]; combined with 6.5 μg/ml or 13 μg/ml ATX-101, FIG. 3)	ampicillin concentration required for the same level of inhibition ([1]; without ATX-101, FIG. 3) [µg/mL]	MIC ([4]; APIM (ATX-101) conc. 8 μg/ml) [mg/L]
4 (≈ 5.45 µM)	1 (≈ 1.36 µM)	4 (≈ 5.45 µM)	> 1030	2								CC[C@H]1OC(=O)[C@H](C)[C@@H](O[C@H]2C[C@@](C)(OC)[C@@H](O)[C@H](C)O2)[C@H](C)[C@@H](O[C@@H]2O[C@H](C)C[C@H](N(C)C)[C@H]2O)[C@](C)(O)C[C@@H](C)C(=O)[C@H](C)[C@@H](O)[C@]1(C)O [Erythromycin]			
2 (≈ 6.68 µM)	2 (≈ 6.68 µM)	4 (≈ 13.4 µM)							0.125 (≈ 0.418 µM)	0.125 (≈ 0.418 µM)	0.25 (≈ 0.835 µM)	C[C@@H](O)[C@H]1C(=O)N2C(C(=O)O)=C(SCCN=CN)C[C@H]12 [Imipenem]			
					32 (≈ 52.2 µM)	8 (≈ 13.1 µM)	4 (≈ 6.53 µM)	64 (≈ 104 µM)	8 (≈ 13.1 µM)	8 (≈ 13.1 µM)	8 (≈ 13.1 µM)	CO[C@@H]1[C@@H](OC(N)=O)[C@@H](O)[C@H](Oc2ccc3c(O)c(NC(=O)c4ccc(O)c(CC=C(C)C)c4)c(=O)oc3c2C)OC1(C)C [Novobiocin]			2 (≈ 3.26 µM)
